According to patent publication US10500139B2, “Formulations and materials with cationic polymers” (UCL BUSINESS LTD, priority 2013, dated 2019):

Assay: CHX and PLS release into storage solution
Type: physicochemical
Details: in water over a period of 6 weeks
Experimental: CHX and PLS release into sample storage solutions were quantified using UV spectrometry (Mehdawi 2009, Zhao 2011) and HPLC respectively.
Reactive filler composites containing PLS were prepared as 1 mm thick composite discs. The fluid phase contained 70% UDMA, 25% TEG-DMA, 5% HEMA, 300 ppm BHT, DMPT 0.5%, BP 0.5%. 25 wt % of this fluid phase was combined with 75 wt % powder filler. The filler contained polylysine (1 or 10 wt %), chlorhexidine (0 or 10 wt %), MCPM/TCP (CaP=10 or 20 wt %) and the remainder glass particles (Sci Pharm).

ε-poly-L-lysine [PLS]
percentage released from 1 mm thick composite discs: over 70%
